Results as given in patent US11377442B2, “Small molecule agonists and antagonists of NR2F6 activity” (ZANDER THERAPEUTICS, INC., priority 2016, dated 2022).
Read-outs that look alike come from different tables or passages of the source.

How the values were obtained:
Format in all cases: cell-based
Renilla = Renilla signal in NR2F6 agonist screening, cmpd/DMSO; details: for fold induction at 2 µM / fold induction at 10 µM / fold induction at 40 µM: Renilla, read-out: Renilla F4, cmpd/DMSO (mean)
ERα [1] = biological target: T1, ERα (Homo sapiens, UniProt P03372); assay: Counterscreening, Firefly signal with ERα transient transfection (Firefly_ERa); details: 10 uM
T1 construct: expressed in transfected cells
T1 sequence (P03372 1-595): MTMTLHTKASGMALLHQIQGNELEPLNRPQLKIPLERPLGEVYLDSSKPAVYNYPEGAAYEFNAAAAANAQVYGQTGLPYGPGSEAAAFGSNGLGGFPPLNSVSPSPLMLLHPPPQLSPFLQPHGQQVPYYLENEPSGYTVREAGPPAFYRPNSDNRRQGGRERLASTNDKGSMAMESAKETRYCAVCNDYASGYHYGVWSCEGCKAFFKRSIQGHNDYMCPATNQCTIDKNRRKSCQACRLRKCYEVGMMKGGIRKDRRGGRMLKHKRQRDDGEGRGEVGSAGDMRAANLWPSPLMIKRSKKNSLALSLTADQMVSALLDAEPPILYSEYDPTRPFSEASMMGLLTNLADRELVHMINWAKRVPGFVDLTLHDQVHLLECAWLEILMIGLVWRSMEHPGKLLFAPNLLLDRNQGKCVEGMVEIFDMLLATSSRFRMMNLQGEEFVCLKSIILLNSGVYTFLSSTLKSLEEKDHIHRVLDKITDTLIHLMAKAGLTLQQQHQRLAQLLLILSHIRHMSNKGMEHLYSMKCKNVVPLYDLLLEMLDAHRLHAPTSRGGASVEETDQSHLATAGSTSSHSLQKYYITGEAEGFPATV
Description: The methodology for screening candidate compounds as NR2F6 agonists was as follows: For primary screening, hit criteria was ACT %>DMSO control+5*SD (DSO control) at 10 μM, or any compound with S/B>2. For rescreening, hit criteria was ACT %>DMSO control+3*SD (DSO control) in each replicate at 10 μM. For counterscreening, hit criteria was mean ACT<DMSO control+3*SD (DMSO control) with ERα transient transfection in duplicate at 10 μM.

ERα [2] = biological target: T1, ERα; assay: as above
NR2F6 = biological target: T2, NR2F6 (Homo sapiens, UniProt P10588); assay: NR2F6 agonist screening, Firefly signal cmpd/DMSO
T2 construct: expressed in transfected cells; also transient transfection
T2 sequence (P10588 1-404): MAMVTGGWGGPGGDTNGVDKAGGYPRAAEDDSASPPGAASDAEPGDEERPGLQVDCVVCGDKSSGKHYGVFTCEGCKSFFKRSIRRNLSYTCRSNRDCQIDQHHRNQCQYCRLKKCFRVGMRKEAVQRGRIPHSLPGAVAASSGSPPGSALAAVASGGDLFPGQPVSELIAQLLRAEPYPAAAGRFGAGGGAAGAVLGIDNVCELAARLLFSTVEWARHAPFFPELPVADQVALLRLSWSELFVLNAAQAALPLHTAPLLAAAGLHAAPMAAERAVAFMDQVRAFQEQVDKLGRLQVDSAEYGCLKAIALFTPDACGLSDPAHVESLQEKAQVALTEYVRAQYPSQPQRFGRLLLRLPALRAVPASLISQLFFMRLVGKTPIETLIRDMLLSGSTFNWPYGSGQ

Renilla_ERa = assay: Renilla signal in ERα counterscreen (Renilla_ERa); details: for fold induction at 2 µM / fold induction at 10 µM / fold induction at 40 µM: read-out: Renilla ERalpha transient, cmpd/DMSO (mean)

| Firefly ERalpha transient, cmpd/DMSO (mean) (ERα [1]) | Firefly ERalpha transient, cmpd/DMSO (mean) (ERα [2]; 2 uM) | Firefly ERalpha transient, cmpd/DMSO (mean) (ERα [2]; 40 uM) | Firefly F4, cmpd/DMSO (mean) (NR2F6; 2 uM, clone F4) | Firefly F4, cmpd/DMSO (mean) (NR2F6; 10 uM, clone F4) | Firefly F4, cmpd/DMSO (mean) (NR2F6; 40 uM, clone F4) | SMILES | fold induction at 2 µM (Renilla; 2 uM, clone F4) | fold induction at 10 µM (Renilla; 10 uM, clone F4) | fold induction at 40 µM (Renilla; 40 uM, clone F4) | fold induction at 2 µM (Renilla_ERa; 2 uM) | fold induction at 10 µM (Renilla_ERa; 10 uM) | fold induction at 40 µM (Renilla_ERa; 40 uM) | other results |
| --- | --- | --- | --- | --- | --- | --- | --- | --- | --- | --- | --- | --- | --- |
| 1.7 | 1.2 | 2.2 | 0.9 | 1.4 | 1.5 | Cc1cc(C)nc(Nc2nc(-c3ccccc3)c(CC(=O)O)s2)n1 [Compound 29] | 0.8 | 0.9 | 0.8 | 1.1 | 1 | 1.1 |  |
| 0.7 | 1.3 | 0.7 | 0.8 | 0.9 | 0.6 | COc1ccc(-c2cc3n(n2)C(N)=C(C#N)C(c2cccn2C)(C(F)(F)F)N3)cc1OC (stereo not drawn) [Compound Z50] | 1.6 | 2 | 0.8 | 1 | 0.8 | 0.6 |  |
| 0.4 | 0.7 | 0.7 | 0.6 | 0.7 | 0.7 | N#Cc1c(C(F)(F)F)nc2ccc(Oc3ccccc3)cc2c1NCCc1ccc(Cl)cc1 [Compound Z52] | 0.8 | 0.5 | 0.6 | 1.1 | 0.8 | 0.7 |  |
|  |  |  |  |  |  | CC(=O)Nc1ccc(NS(C)(=O)=O)c2nonc12 [Compound Z15] |  |  |  |  |  |  | fold induction at 2 µM (Renilla; Table 15, 2 uM): 0.8; fold induction at 10 µM (Renilla; Table 15, 10 uM): 1.1; fold induction at 40 µM (Renilla; Table 15, 40 uM): 1; Firefly ERalpha transient, cmpd/DMSO (mean) (ERα [1]; Table 15): 1.1; Firefly ERalpha transient, cmpd/DMSO (mean) (ERα [2]; Table 15, 2 uM): 0.9; Firefly ERalpha transient, cmpd/DMSO (mean) (ERα [2]; Table 15, 40 uM): 1.1; Firefly F4, cmpd/DMSO (mean) (NR2F6; Table 15, 2 uM): 1.0; Firefly F4, cmpd/DMSO (mean) (NR2F6; Table 15, 10 uM): 0.5; Firefly F4, cmpd/DMSO (mean) (NR2F6; Table 15, 40 uM): 0.9; fold induction at 2 µM (Renilla_ERa; Table 15, 2 uM): 1; fold induction at 10 µM (Renilla_ERa; Table 15, 10 uM): 1; fold induction at 40 µM (Renilla_ERa; Table 15, 40 uM): 0.9 |
|  |  |  |  |  |  | Cc1ccc(NC(=O)c2noc3c2CC(C)(C)CC3)cc1C [Compound Z1] |  |  |  |  |  |  | fold induction at 2 µM (Renilla; Table 15, 2 uM): 1.3; fold induction at 10 µM (Renilla; Table 15, 10 uM): 1.6; fold induction at 40 µM (Renilla; Table 15, 40 uM): 0.8; Firefly ERalpha transient, cmpd/DMSO (mean) (ERα [1]; Table 15): 2.2; Firefly ERalpha transient, cmpd/DMSO (mean) (ERα [2]; Table 15, 2 uM): 2.4; Firefly ERalpha transient, cmpd/DMSO (mean) (ERα [2]; Table 15, 40 uM): 0.9; Firefly F4, cmpd/DMSO (mean) (NR2F6; Table 15, 2 uM): 1.9; Firefly F4, cmpd/DMSO (mean) (NR2F6; Table 15, 10 uM): 1.8; Firefly F4, cmpd/DMSO (mean) (NR2F6; Table 15, 40 uM): 0.8; fold induction at 2 µM (Renilla_ERa; Table 15, 2 uM): 1.1; fold induction at 10 µM (Renilla_ERa; Table 15, 10 uM): 1; fold induction at 40 µM (Renilla_ERa; Table 15, 40 uM): 0.7 |
|  |  |  |  |  |  | CCOC(=O)c1cnc2c(C)cc(C)cc2c1N1CCC(C)CC1 [Compound Z76] |  |  |  |  |  |  | fold induction at 2 µM (Renilla; Table 15, 2 uM): 1; fold induction at 10 µM (Renilla; Table 15, 10 uM): 0.8; fold induction at 40 µM (Renilla; Table 15, 40 uM): 0.5; Firefly ERalpha transient, cmpd/DMSO (mean) (ERα [1]; Table 15): 1.9; Firefly ERalpha transient, cmpd/DMSO (mean) (ERα [2]; Table 15, 2 uM): 1.3; Firefly ERalpha transient, cmpd/DMSO (mean) (ERα [2]; Table 15, 40 uM): 0.7; Firefly F4, cmpd/DMSO (mean) (NR2F6; Table 15, 2 uM): 0.8; Firefly F4, cmpd/DMSO (mean) (NR2F6; Table 15, 10 uM): 1.8; Firefly F4, cmpd/DMSO (mean) (NR2F6; Table 15, 40 uM): 0.8; fold induction at 2 µM (Renilla_ERa; Table 15, 2 uM): 1.1; fold induction at 10 µM (Renilla_ERa; Table 15, 10 uM): 0.8; fold induction at 40 µM (Renilla_ERa; Table 15, 40 uM): 0.4 |
| 1.3 | 1.5 | 0.5 | 1.3 | 1.5 | 0.7 | O=C(O)c1ccc(-n2ncc(Cl)c(Cl)c2=O)cc1 [Compound 44] | 1.1 | 1.1 | 0.3 | 1.3 | 1.2 | 0.3 |  |
| 1.2 | 1.1 | 1.2 | 0.9 | 0.8 | 0.9 | CC(C)Nc1nc(N2CCOCC2)nc(N2CCn3c(cccc3=O)C2)n1 [Compound 34] |  |  |  |  |  |  | Renilla F4, cmpd/DMSO (mean) (Renilla; 2 uM, clone F4): 0.9; Renilla F4, cmpd/DMSO (mean) (Renilla; 10 uM, clone F4): 1.1; Renilla F4, cmpd/DMSO (mean) (Renilla; 40 uM, clone F4): 0.9; Renilla ERalpha transient, cmpd/DMSO (mean) (Renilla_ERa; 2 uM): 1.0; Renilla ERalpha transient, cmpd/DMSO (mean) (Renilla_ERa; 10 uM): 1.1; Renilla ERalpha transient, cmpd/DMSO (mean) (Renilla_ERa; 40 uM): 1.1 |
| 1.6 | 0.9 | 1.3 | 0.8 | 0.9 | 1.1 | Cc1cc(C)c2ncc(C(=O)N(C)C)c(NCCCN(C)C)c2c1 [Compound Z31] | 1.1 | 1 | 1 | 1 | 1 | 1 |  |
| 0.6 | 0.9 | 0.9 | 1.1 | 0.9 | 0.9 | O=c1cccc2n1CC1CC2CN(c2nc(NCCC3=CCCCC3)nc(N3CCOCC3)n2)C1 (stereo not drawn) [Compound 39] | 1.2 | 1.4 | 1 | 1.1 | 1.2 | 1.2 |  |
| 2.1 | 1.3 | 0.5 | 1.3 | 1.3 | 0.7 | CCOC(=O)c1cnc2c(C)cc(C)cc2c1N1CCCC(N(C)C)C1 (stereo not drawn) [Compound Z27] | 1.2 | 1.2 | 0.9 | 1.2 | 1.2 | 0.8 |  |

| SMILES | Firefly ERalpha transient, cmpd/DMSO (mean) (ERα [1]) | Firefly ERalpha transient, cmpd/DMSO (mean) (ERα [2]; 2 uM) | Firefly ERalpha transient, cmpd/DMSO (mean) (ERα [2]; 40 uM) | Firefly F4, cmpd/DMSO (mean) (NR2F6; 2 uM, clone F4) | Firefly F4, cmpd/DMSO (mean) (NR2F6; 10 uM, clone F4) | Firefly F4, cmpd/DMSO (mean) (NR2F6; 40 uM, clone F4) | fold induction at 2 µM (Renilla; 2 uM, clone F4) | fold induction at 10 µM (Renilla; 10 uM, clone F4) | fold induction at 40 µM (Renilla; 40 uM, clone F4) | fold induction at 2 µM (Renilla_ERa; 2 uM) | fold induction at 10 µM (Renilla_ERa; 10 uM) | fold induction at 40 µM (Renilla_ERa; 40 uM) | other results |
| --- | --- | --- | --- | --- | --- | --- | --- | --- | --- | --- | --- | --- | --- |
| O=c1c(Cl)c(Cl)cnn1-c1ccccc1 [Compound 45] | 1.6 | 1.8 | 0.6 | 3.2 | 1.2 | 0.7 | 1.6 | 0.8 | 0.2 | 1.6 | 0.8 | 0.2 |  |
| O=c1cccc2n1CC1CC2CN(c2nc(N3CCOCC3)nc(N3CCOCC3)n2)C1 (stereo not drawn) [Compound 31] | 1.2 | 0.8 | 1.0 | 0.8 | 1.0 | 0.9 | 1 | 1 | 1 | 1 | 1.1 | 1.1 |  |
